Source: the supplement of paper PMC10307832

Tests used:
Experiment in all cases: relative viability (nuclei count vs DMSO), 5 days (fraction); higher = more cells survive
SW 900 = tested on: SW 900
Outline: (§1)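 Relative viability equals treated-well nuclei counts divided by vehicle-well nuclei counts. Counts came from 4× images of lung cancer cell lines grown in 1536-well plates for 5 days after pin-tool dosing on the day after seeding. Dosing used one drug alone or a fixed anchor-drug dose plus five library-drug doses (not always all listed) in √10 steps, and values are medians of duplicate plates.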

ABC-1 = tested on: ABC-1
Outline: as §1

HARA = tested on: HARA
Outline: as §1

LK-2 = tested on: LK-2
Outline: as §1

NCI-H1792 = tested on: NCI-H1792
Outline: as §1

NCI-H522 = tested on: NCI-H522
Outline: as §1

NCI-H1993 = tested on: NCI-H1993
Outline: as §1

NCI-H727 = tested on: NCI-H727
Outline: as §1

LXF-289 = tested on: LXF-289
Outline: as §1

PC-3 [JPC-3] = tested on: PC-3 [JPC-3]
Outline: as §1

NCI-H3122 = tested on: NCI-H3122
Outline: as §1

NCI-H1944 = tested on: NCI-H1944
Outline: as §1

HOP-62 = tested on: HOP-62
Outline: as §1

A-427 = tested on: A-427
Outline: as §1

NCI-H596 = tested on: NCI-H596
Outline: as §1

NCI-H322M = tested on: NCI-H322M
Outline: as §1

EMC-BAC-2 = tested on: EMC-BAC-2
Outline: as §1

NCI-H2170 = tested on: NCI-H2170
Outline: as §1

Structure (SMILES): O=c1cc(N2CCOCC2)oc2c(-c3cccc4c3sc3ccccc34)cccc12 + NC(=O)Nc1cc(-c2cccc(F)c2)sc1C(=O)N[C@H]1CCCNC1 [AZD7762] (partner 0.2 µM)
- relative viability (SW 900; first compound 0.03162 µM): 0.748
- relative viability (SW 900; first compound 0.1 µM): 0.378
- relative viability (SW 900; first compound 0.3162 µM): 0.702
- relative viability (SW 900; first compound 1 µM): 0.497
- relative viability (ABC-1; first compound 0.01 µM): 0.819
- relative viability (ABC-1; first compound 0.03162 µM): 0.774
- relative viability (ABC-1; first compound 0.1 µM): 0.695
- relative viability (ABC-1; first compound 0.3162 µM): 0.694
- relative viability (ABC-1; first compound 1 µM): 0.848
- relative viability (HARA; first compound 0.01 µM): 0.501
- relative viability (HARA; first compound 0.03162 µM): 0.303
- relative viability (HARA; first compound 0.1 µM): 0.302
- relative viability (HARA; first compound 0.3162 µM): 0.343
- relative viability (HARA; first compound 1 µM): 0.357
- relative viability (LK-2; first compound 0.01 µM): 0.468
- relative viability (LK-2; first compound 0.03162 µM): 0.369
- relative viability (LK-2; first compound 0.1 µM): 0.262
- relative viability (LK-2; first compound 0.3162 µM): 0.369
- relative viability (LK-2; first compound 1 µM): 0.354
- relative viability (NCI-H1792; first compound 0.01 µM): 0.75
- relative viability (NCI-H1792; first compound 0.03162 µM): 0.682
- relative viability (NCI-H1792; first compound 0.3162 µM): 0.673
- relative viability (NCI-H1792; first compound 1 µM): 0.733
- relative viability (NCI-H522; first compound 0.01 µM): 0.737
- relative viability (NCI-H522; first compound 0.03162 µM): 0.894
- relative viability (NCI-H522; first compound 0.1 µM): 0.504
- relative viability (NCI-H522; first compound 0.3162 µM): 0.967
- relative viability (NCI-H522; first compound 1 µM): 0.775
- relative viability (NCI-H1993; first compound 0.01 µM): 0.832
- relative viability (NCI-H1993; first compound 0.03162 µM): 0.764
- relative viability (NCI-H1993; first compound 0.1 µM): 0.779
- relative viability (NCI-H1993; first compound 0.3162 µM): 0.692
- relative viability (NCI-H1993; first compound 1 µM): 0.715
- relative viability (NCI-H727; first compound 0.01 µM): 0.583
- relative viability (NCI-H727; first compound 0.03162 µM): 0.486
- relative viability (NCI-H727; first compound 0.1 µM): 0.423
- relative viability (NCI-H727; first compound 0.3162 µM): 0.596
- relative viability (NCI-H727; first compound 1 µM): 0.575
- relative viability (LXF-289; first compound 0.01 µM): 1.11
- relative viability (LXF-289; first compound 0.03162 µM): 1.08
- relative viability (LXF-289; first compound 0.1 µM): 0.75
- relative viability (LXF-289; first compound 0.3162 µM): 1.2
- relative viability (LXF-289; first compound 1 µM): 1.21
- relative viability (PC-3 [JPC-3]; first compound 0.01 µM): 0.65
- relative viability (PC-3 [JPC-3]; first compound 0.03162 µM): 0.855
- relative viability (PC-3 [JPC-3]; first compound 0.1 µM): 0.87
- relative viability (PC-3 [JPC-3]; first compound 0.3162 µM): 0.954
- relative viability (PC-3 [JPC-3]; first compound 1 µM): 0.834
- relative viability (NCI-H3122; first compound 0.01 µM): 1.01
- relative viability (NCI-H3122; first compound 0.03162 µM): 0.976
- relative viability (NCI-H3122; first compound 0.1 µM): 0.731
- relative viability (NCI-H3122; first compound 0.3162 µM): 0.99
- relative viability (NCI-H3122; first compound 1 µM): 0.973
- relative viability (NCI-H1944; first compound 0.01 µM): 0.541
- relative viability (NCI-H1944; first compound 0.03162 µM): 0.527
- relative viability (NCI-H1944; first compound 0.1 µM): 0.481
- relative viability (NCI-H1944; first compound 0.3162 µM): 0.528
- relative viability (NCI-H1944; first compound 1 µM): 0.438
- relative viability (HOP-62; first compound 0.01 µM): 0.514
- relative viability (HOP-62; first compound 0.03162 µM): 0.574
- relative viability (HOP-62; first compound 0.1 µM): 0.188
- relative viability (HOP-62; first compound 0.3162 µM): 0.745
- relative viability (HOP-62; first compound 1 µM): 0.689
- relative viability (A-427; first compound 0.01 µM): 0.731
- relative viability (A-427; first compound 0.03162 µM): 0.767
- relative viability (A-427; first compound 0.1 µM): 0.529
- relative viability (A-427; first compound 0.3162 µM): 0.795
- relative viability (A-427; first compound 1 µM): 0.735
- relative viability (NCI-H596; first compound 0.01 µM): 1.19
- relative viability (NCI-H596; first compound 0.03162 µM): 1.2
- relative viability (NCI-H596; first compound 0.1 µM): 0.75
- relative viability (NCI-H596; first compound 0.3162 µM): 1.18
- relative viability (NCI-H596; first compound 1 µM): 1.08
- relative viability (NCI-H322M; first compound 0.01 µM): 0.578
- relative viability (NCI-H322M; first compound 0.03162 µM): 0.589
- relative viability (NCI-H322M; first compound 0.3162 µM): 0.595
- relative viability (NCI-H322M; first compound 1 µM): 0.581
- relative viability (EMC-BAC-2; first compound 0.01 µM): 1.09
- relative viability (EMC-BAC-2; first compound 0.03162 µM): 1.17
- relative viability (EMC-BAC-2; first compound 0.1 µM): 1.19
- relative viability (EMC-BAC-2; first compound 0.3162 µM): 1.14
- relative viability (EMC-BAC-2; first compound 1 µM): 1.11
- relative viability (NCI-H2170; first compound 0.01 µM): 0.78
- relative viability (NCI-H2170; first compound 0.03162 µM): 0.945
- relative viability (NCI-H2170; first compound 0.1 µM): 0.734
- relative viability (NCI-H2170; first compound 0.3162 µM): 0.842
- relative viability (NCI-H2170; first compound 1 µM): 0.852
